Two molecules from US12318388B2, “Pyrimidine derivatives for prevention and treatment of gram-negative bacterial infection, contamination and fouling” (UNIVERSITÉ DE LIÈGE, priority 2019, dated 2025) can be followed below.

Holding throughout (format): cell-based
Assay [1] deals with E. coli (ATCC 8739) biofilm. As to the kind of experiment: Inhibition of E. coli biofilm formation (crystal violet, biofilm mass). The following applies: for E. coli biofilm mass expressed in percentage: replicate values. How it is done: 1.5×10^4 CFU of E. coli (ATCC 8739) in early logarithmic phase were added in a well of a 48-well polystyrene plate containing Luria Bertani (LB) medium supplemented with 5% mannose (purchased from Sigma-aldrich #M6020-25G) and incubated for 48h at 37° C. The incubation was carried in static conditions in presence or absence of different concentrations of the molecules 2329 or 2666 in combination or not with the penetrating agent polymyxin B nonapeptide (PMBN) (35 μg/ml) (provided by Sigma-aldrich #P2076-5MG). After incubation, planktonic bacteria, which are bacteria floating in the liquid medium, were removed and adherent bacteria were washed 2 times in PBS. Crystal Violet (Sigma-aldrich #C0775-25G) (1% solution in dH2O) was then added to the wells for 15 min at RT to stain the biofilm. Wells were washed 3 times with PBS (phosphate buffered saline provided by Lonza #17-516F) to eliminate unbound crystal violet and […] Acetic Acid 20% was added and incubated at RT for 10 min. The absorbance of the solution was measured at 570 nm with an Infinite 200 PRO (Tecan) reflecting the total biomass of the biofilm, which corresponds to the sum of live and dead bacteria. The Biofilm Mass, expressed in percentage, is calculated by the following formula: Abs(sample)/Abs(DMSO 1%)*100, wherein the Abs(sample) or Abs(DMSO) represents the difference between the absorbance of the sample or DMSO and the blank (blank is the medium alone without bacteria).

For assay [2], the system named is Pseudomonas aeruginosa (ATCC27853). As to the kind of experiment: Minimal Inhibitory Concentration (MIC) on Pseudomonas aeruginosa with or without PMBN. As for the experimental part:
A single colony grown on an tryptic soy agar plate is resuspended and cultured in tryptic soy broth medium overnight (O/N) in aerobic conditions (37° C. with 220 rpm shaking), next day a 1:100 inoculum in Mueller-Hinton broth (MHB) is incubated in aerobic conditions for 3h (OD=0.5-0.6) and an inoculum of 1:1000 dilution, corresponding to 1-3×10^5 CFU/ml, is incubated in presence or absence of different concentrations of the tested molecules in 1% DMSO (vehicle) with or without PMBN at 0.5 μg/ml. After 28-30h growth the OD of each culture was measured at 600 nm (OD600) in a spectrophotometer (Victor 3-Perkin Elmer). The MIC represents the concentration at which there is no visible growth of bacteria, i.e. ΔOD at 600 nm equal to zero (blank is the medium alone) wherein ΔOD is the difference between the resulting optical density (OD) with the molecule together with PMBN, and the optical density (OD) of the blank (blank is the medium) alone.

For assay [3], the system named is Escherichia coli (ATCC 8739). As to the kind of experiment: Minimal Inhibitory Concentration (MIC) on Escherichia coli with or without PMBN, OD600 after O/N growth. The settings on record: for MIC: molecule alone. How it is done: The Minimal Inhibitory Concentration (MIC) of molecules 2329, 2412, 2452 and 2461 together with polymyxin B nonapeptide (PMBN) was determined on Escherichia coli (ATCC 8739) according to EUCAST (European Committee on Antimicrobial Susceptibility Testing) recommendations.
(§1) Briefly, a single colony grown on a Luria-Bertani Agar (LB) plate was resuspended and cultured in the LB medium overnight (O/N) in aerobic conditions (37° C. with 220 rpm shaking), next day a 1:50 inoculum in Mueller-Hinton broth (MHB) was incubated in aerobic conditions for 1h30 (OD=0.08-0.1) and an inoculum of 1:300 dilution, corresponding to 3×10^6 CFU/ml, was incubated in presence or absence of different concentrations of the molecules in 1% DMSO (vehicle) with or without Polymyxin B nonapeptide (PMBN) at 40 μg/ml. After O/N growth the OD of each culture was measured at 600 nm in a spectrophotometer (OD600). The MIC represents the concentration at which there is no visible growth of bacteria, i.e. ΔOD at 600 nm equal to zero wherein ΔOD is the difference between the resulting optical density (OD) with the molecule together with PMBN, and the optical density (OD) of the blank (blank is the medium) alone.
(§2) A single colony grown on an Lurian-Bertani (LB) agar plate is resuspended and cultured in LB medium overnight (O/N) in aerobic conditions (37° C. with 220 rpm shaking), next day a 1:50 inoculum in Mueller-Hinton broth (MHB) is incubated in aerobic conditions for 1h30 (OD=0.08-0.1) and an inoculum of 1:300 dilution, corresponding to 3×10^6 CFU/ml, is incubated in presence or absence of different concentrations of the tested molecules in 1% DMSO (vehicle) with or without PMBN at 40 μg/ml. After O/N growth the OD of each culture was measured at 600 nm (OD600) in a spectrophotometer (Victor 3-Perkin Elmer). The MIC represents the concentration at which there is no visible growth of bacteria, i.e. ΔOD at 600 nm equal to zero wherein ΔOD is the difference between the resulting optical density (OD) with the molecule together with PMBN, and the optical density (OD) of the blank (blank is the medium) alone.
as §1, with “cultured in LB medium” for “cultured in the LB medium”, “of the above-mentioned molecules in” for “of the molecules in”
as §2, with “a Luria-Bertani” for “an Lurian-Bertani”, “above-mentioned pyrazolopyrimidine molecule” for “tested molecules”, “alone. […]” for “alone.”

In brackets after ≈: the same amount, converted by molar mass. Several values for one entry are separate records, joined by “and”; a condition that tells them apart may be missing. Equal values may be shown once. Entries after “also recorded” stand apart in the source; their conditions may differ.

With `CCCSc1nc(N[C@@H]2C[C@H]2c2ccc(F)c(F)c2)c2ncn(C)c2n1` [molecule 2329, N-((1R,2S)-2-(3,4-difluorophenyl)cyclopropyl)-9-methyl-2-(propylthio)-9H-purin-6-amine], the “Effect on E. coli biofilm formation (FIG. 2)” value in assay [1] (5 μM combined with 35 μg/ml PMBN) is “fully inhibited”. The “E. coli biofilm mass expressed in percentage” value in assay [1] (2329 20 μM without PMBN) is 110.45 percentage and 124.24 percentage and 97.41 percentage and 107.12 percentage; in assay [1] (P + 2329 5 μM (PMBN 35 μg/ml)), 12.79 percentage and 11.45 percentage and −1.25 percentage and −1.59 percentage; in assay [1] (P + 2329 10 μM (PMBN 35 μg/ml)) it was 0.12 percentage and −1.01 percentage and 2.96 percentage and 3.11 percentage. The “Effect on E. coli biofilm growth (FIG. 2)” value in assay [1] (molecule alone, without PMBN) was “no effect”. Besides, in assay [2] (Pseudomonas aeruginosa (ATCC 27853), molecule alone), the “Minimal inhibitory concentration without PMBN” value is >100 µM. Moreover, the “Minimal inhibitory concentration With PMBN” value in assay [2] (Pseudomonas aeruginosa (ATCC 27853), together with PMBN at 0.5 μg/ml) stood at 50 µM (≈ 18.8 µg/mL); in assay [3] (E. coli (ATCC 8739), together with PMBN at 40 μg/ml) it was 10 µM (≈ 3.75 µg/mL). Besides, in assay [3] (10 μM with 40 μg/ml PMBN), the “OD600 nm after O/N growth of Escherichia coli (FIG. 4)” value is given as “killed all bacteria”. Also, the MIC was >100 µM in assay [3] (E. coli (ATCC 8739)) and > 100 µM in assay [3] (Escherichia coli, ATCC8739, E. coli (ATCC 8739)). In addition, the “Activity against Escherichia coli (ATCC 8739), conclusion” value in assay [3] (with 40 μg/ml PMBN) is on record as “bactericidal activity”.

For the molecule “Polymyxin B nonapeptide [PMBN, reference compound]”, in assay [1] (PMBN 35 μg/ml alone), the “Effect on E. coli biofilm growth (FIG. 2)” value is “reduced by half”; the “E. coli biofilm mass expressed in percentage” value is 47.94 percentage and 48.98 percentage and 53.90 percentage and 50.87 percentage. In addition, in assay [2] (0.5 μg/ml PMBN alone), the “Inhibition of Pseudomonas aeruginosa growth by PMBN alone” value is given as “did not inhibit”. For the same molecule, in assay [3] (40 μg/ml PMBN alone), the “Inhibition of E. coli growth by PMBN alone” value was “unable to inhibit; also recorded: did not inhibit”.

Broadly, the MIC is the lowest concentration that inhibits growth of the organism. A higher MIC goes with a need for much substance.
